Key:
BKV(Dunlop) [1] = settings: BKV-infected RPTECs, Bernhoff et al., 2008, cited from earlier work
BKV(Dunlop) [2] = assay: BKV early and late protein expression in infected RPTECs (immunofluorescence, western blot); type: cell-based; settings: for LTag staining reduced / decrease of VP1 by western blotting: CMX001 0.31 μM
Experimental: For FIG. 1(b), indirect immunofluorescence of untreated and CMX001 treated BKV-infected RPTECs, methanol fixed 72 h pd. and stained with rabbit anti-agnoprotein serum (green) for visualization of the late agnoprotein and with the SV40 LTag monoclonal Pab416 for visualization og BKV LTag (red). Cell density is shown by Drac 5 staining in blue.
For FIG. 4(a), indirect immunofluorescence of untreated and CMX001 treated BKV-infected RPTECs, methanol fixed 48 and 72 h p.i. and stained with rabbit anti-agnoprotein serum (green) for visualization of the late agnoprotein and with the SV40 LTag monoclonal Pab416 for visualization of BKV LTag (red). For FIG. 4(b), cell extracts from CMX001-treated and untreated BKV-infected RPTECs were harvested 48 and 72 h p.i. and western blot performed with rabbit anti-BKV VP1, anti-agnoprotein serum and a monoclonal antibody directed against the housekeeping protein GAPDH.
Primary human renal proximal tubule epithelial cells (RPTECs), BKV(Dunlop) and all methods as previously described by Bernhoff et al (See Bernhoff et al., Cidofovir inhibits polyomavirus BK replication in human renal tubular cells downstream of viral early gene expression, Am J Transplant 8, 1413-1422 (2008).) Only one exception, quantitative PCR (qPCR) to quantify intracellular or extracellular BKV DNA load was performed with a different primer/probe set also targeting the LTag gene (See Hirsch, et al., J. Prospective study of polyomavirus type BK replication and nephropathy in renal-transplant recipients, N Engl J. Med., 347, 488-496 (2002)). Before each experiment, CMX001 was freshly dissolved to 1 mg/ml in methanol/water/ammonium hydroxide (50/50/2). It was further diluted in RPTEC growth medium.
To investigate expression of LTag at the single-cell level, immunofluorescence staining at 48 and 72 h p.i was performed. At 48 h p.i. the number of BKV positive cells was almost the same in CMX001 and untreated wells. At 72 h p.i., the CMX001 treated cells seemed to express less LTag pro cell (FIG. 4a).

COS-7 cells = assay: DNA replication of uninfected COS-7 cells (BrdU assay); type: cell-based; settings: Chlorocebus aethiops
Experimental: FIG. 14 illustrates the effect of increasing concentrations of CMX001 on replication of COS-7 cells. DNA replication was determined by BrdU incorporation. Medium with indicated CMX001 concentrations was added to COS-7 cells and absorbance measured 72 h post seeding. Absorbance for untreated cells was set as 100%. DNA synthesis was quantified by the colorimetric measurement of BrdU incorporation into DNA in proliferating cells using the ‘Cell proliferation ELISA, BrdU’ kit (Roche). COS-7 cells were seeded in 96 well plates and CMX001 was added at indicated concentrations. Absorbance at 450 nm (sample) and at 650 nm (background) was determined 2 h after addition of the substrate.

BKV(Dunlop) [3] = assay: Intracellular BKV load per cell in RPTECs (qPCR); type: cell-based; settings: CMX001 0.31 μM
Experimental: FIG. 3 illustrates the influence of CMX001 0.31 μM on BKV genome replication. For Figure, CMX001-treated and untreated BKV-infected RPTECs were harvested at indicated timepoints and intracellular BKV DNA load per cell was measured by qPCR.
To investigate whether the BKV genome replication was affected by CMX001, intracellular BKV load at 24-72 h p.i. by qPCR was measured. The intracellular BKV load was normalized to the cell number using the aspartoacylase (ACY) gene as described (See Bernhoff et al., 2008; Randhawa, et al., Quantitation of DNA of polyomaviruses BK and JC in human kidneys. J Infect Dis., 192, 504-509 (2005)). Compared to untreated RPTECs, CMX001 0.31 μM reduced the intracellular BKV load by 94% at 48 h and 63% at 72 h p.i. (FIG. 3). Then, a significant inhibitory effect of CMX001 on intracellular BKV genome replication, which is the second step of the BKV lifecycle may be identified. This step is known to require LTag expression which also increases viral late gene expression by two mechanisms: 1. increasing the DNA templates for late gene transcription and 2. by activating transcription from the late promoter (Cole, C. N., Polyomavirinae: The Viruses and Their Replication. In Fields Virology, Third edn, pp. 1997-2043. Edited by B. N. Fields, D. M. Knipe & P. H. Howley. New York: Lippincott-Raven (1996).)

JCV Mad-4 = assay: Extracellular JCV load in JCV-infected COS-7 cells (qPCR); type: cell-based
Experimental: COS-7 supernatants were harvested 5 […] post start of treatment with indicated CMX001 concentrations. JCV load was measured by qPCR and input virus subtracted. DNA load in untreated cells (5.04×10 E+9 geq/ml) was set as 100%. Replication of JCV is shown as percentage of untreated cells to determine the IC-50 and IC-90. […] Supernatants from CMX001-treated and untreated JCV-infected COS-7 cells were harvested at indicated timepoints after infection and JCV load measured by qPCR. Data are presented as JCV load in log geq/ml. COS-7 or astrocyte cells were infected at a confluence of 60-70% with JCV(Mad-4) at an estimated TCID50 of 0.2. After 2 h incubation at 37° C., supernatants were replaced with fresh medium without or with increasing concentration CMX001. […] JCV loads were quantified after DNA extraction from 100 ul cell culture supernatants and the Corbett X-tractor Gene and the Corbett VX reagents (Qiagen, Hombrechtikon, Switzerland). The real-time PCR protocol for detection of JCV DNA samples targets the JCV large T coding sequence and has been described elsewhere (5). To investigate the effect of CMX001 on JCV progeny, increasing concentrations of CMX001 were added at 2 h p.i. and supernatants harvested at 5 d.p.i. It was observed that CMX001 reduced the extracellular JCV load in a concentration dependent manner (FIG. 12).

Compound: Nc1ccn(C[C@@H](CO)OCP(=O)(O)O)c(=O)n1 [cidofovir]
- concentration of CDV inhibiting BKV (IC90) (BKV(Dunlop) [1]): 40 µg/mL
- IC90 (BKV(Dunlop) [1]; read-out: concentration of CDV inhibiting BKV (IC90)): 127000 nM

Compound: CCCCCCCCCCCCCCCCOCCCOP(=O)(O)CO[C@H](CO)Cn1ccc(N)nc1=O [CMX001]
- BKV-infected cells by immunofluorescence staining (BKV(Dunlop) [2]; 5 uM CMX001, 72 h p.i.): only few weakly LTag stained cells but no agnoprotein expressing cells were observed
- BKV-infected cells by immunofluorescence staining (BKV(Dunlop) [2]; 10 uM CMX001, 72 h p.i.): no BKV-infected cell was observed
- LTag staining reduced (BKV(Dunlop) [2]; 48 h p.i.): 33%
- decrease of VP1 by western blotting (BKV(Dunlop) [2]; 48 h p.i.): 86%
- LTag staining reduced (BKV(Dunlop) [2]; 72 h p.i.): 30%
- decrease of VP1 by western blotting (BKV(Dunlop) [2]; 72 h p.i.): 63%
- decrease in BKV agnoprotein expressing cells (BKV(Dunlop) [2]; CMX001 0.31 uM, immunofluorescence 72 h p.i.): approximately 60%
- IC50 (COS-7 cells): ~600 nM
- reduction of intracellular BKV load (BKV(Dunlop) [3]; 48 h p.i.): 94%
- reduction of intracellular BKV load (BKV(Dunlop) [3]; 72 h p.i.): 63%
- change in the JCV load over 7 days (JCV Mad-4; 5 nM CMX001, COS-7): less than 1 log
- IC50 (JCV Mad-4; 120 h, COS-7, day 5 p.i., viral input subtracted, read-out: inhibitory concentration IC-50 (extracellular JCV load)): 150 nM
- IC90 (JCV Mad-4; 120 h, COS-7, day 5 p.i., viral input subtracted, read-out: inhibitory concentration IC-90 (extracellular JCV load)): 600 nM
- reduction of JCV viral load (JCV Mad-4; CMX001 0.15 μM, day 5 p.i.): > 50%
- IC-90 concentration lower than concentrations reported for CDV inhibition of JCV (JCV Mad-4; CMX001 0.6 μM, COS-7): 2 orders of magnitude
- viral load at 7 d.p.i. relative to untreated cells at 3 d.p.i. (JCV Mad-4; CMX001 5 uM, COS-7): 91%

Source: US20120164104A1, “Composition and Methods of Treating Viral Infections and Viral Induced Tumors” (Chimerix, Inc., priority 2009, published 2012)
